Active and inactive are the calls of the source.
Experiments:
[1] = P. falciparum Dd2 growth inhibitors, dose response, SYBR Green, dry powder samples, set 9 (AID 1159568); type: functional, cell-based
[2] = biological target: Disintegrin and metalloproteinase domain-containing protein 17 (Homo sapiens, UniProt P78536); assay: ADAM17 protease inhibitors, dose response, counter-screen for ADAM10 exosite inhibitor project, biochemical, quenched FRET substrate (AID 743253)
[3] = ADAM10 inhibitors, peptide cleavage, dose response, biochemical, QFRET (AID 743254);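 further: ADAM10 enzyme with the DM2 quenched FRET peptide as substrate; EDANS fluorescence gain as the protease cuts the substrate; inhibitor potency against ADAM10 proteolytic activity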
[4] = biological target: T1, Tyrosine-protein phosphatase non-receptor type 7 (Homo sapiens, UniProt P35236); assay: inhibitors of human HePTP phosphatase, […], biochemical, absorbance, leukemia target (AID 521); type: functional
T1 sequence (P35236 whole entry): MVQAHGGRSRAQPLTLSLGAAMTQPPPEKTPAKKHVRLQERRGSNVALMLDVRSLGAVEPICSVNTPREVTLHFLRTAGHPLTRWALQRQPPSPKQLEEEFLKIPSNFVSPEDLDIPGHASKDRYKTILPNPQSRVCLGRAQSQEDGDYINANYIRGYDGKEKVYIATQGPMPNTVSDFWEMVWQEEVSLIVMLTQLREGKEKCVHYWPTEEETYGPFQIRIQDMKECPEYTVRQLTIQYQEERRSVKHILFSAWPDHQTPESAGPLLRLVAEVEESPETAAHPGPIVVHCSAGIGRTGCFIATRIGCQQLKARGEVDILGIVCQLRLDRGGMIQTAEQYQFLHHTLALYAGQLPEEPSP

SUMO-activating enzyme = SUMO-activating enzyme (Homo sapiens, UniProt Q9UBT2); assay: SUMOylation inhibitor hit validation, confirmation, SUMOylation inhibitor project, biochemical, AlphaScreen (AID 2018); type: functional
Protein Tat = Protein Tat (Human immunodeficiency virus type 1 group M subtype B (isolate HXB2)(HIV-1), UniProt P04608); type: functional;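 further: tat binding to TAR RNA read out by fluorescence polarization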
[5] = biological target: T2, Mannose-6-phosphate isomerase (Homo sapiens, UniProt P34949); assay: inhibitors of human PMI, primary screen, biochemical, fluorescence intensity, coupled assay (AID 1209)
T2 sequence (P34949 whole entry): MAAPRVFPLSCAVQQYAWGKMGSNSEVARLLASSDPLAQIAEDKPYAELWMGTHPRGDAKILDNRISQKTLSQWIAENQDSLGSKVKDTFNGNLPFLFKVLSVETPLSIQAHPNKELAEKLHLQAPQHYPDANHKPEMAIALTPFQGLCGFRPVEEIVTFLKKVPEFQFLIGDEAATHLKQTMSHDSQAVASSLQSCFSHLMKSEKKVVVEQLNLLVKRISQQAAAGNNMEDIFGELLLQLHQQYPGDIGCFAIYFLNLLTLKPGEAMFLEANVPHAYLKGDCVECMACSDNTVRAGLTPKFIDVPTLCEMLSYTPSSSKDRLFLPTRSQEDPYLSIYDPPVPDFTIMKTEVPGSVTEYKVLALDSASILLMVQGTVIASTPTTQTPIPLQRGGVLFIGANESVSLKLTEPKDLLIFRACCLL

[6] = biological target: T2, Mannose-6-phosphate isomerase; assay: human PMI inhibitors, high substrate, primary screen, biochemical, fluorescence intensity, high mannose 6-phosphate (AID 1220)
[7] = biological target: DNA damage-inducible transcript 3 protein (Mus musculus, UniProt P35639); type: functional, Cricetulus griseus
[8] = biological target: NAD-dependent protein deacylase sirtuin-5, mitochondrial (Homo sapiens, UniProt Q9NXA8); assay: SIRT5 desuccinylase inhibitors, dose response, biochemical, fluorescence imaging, cherry-pick, set 5 (AID 720591);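 further: desuccinylation of succinyl peptide AMC substrate read as fluorescence after trypsin release; potency of inhibitors that lower fluorescence and may act on trypsin instead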
[9] = biological target: COUP transcription factor 2 (Homo sapiens, UniProt P24468); assay: Luminescence-based cell-based high throughput dose response assay to identify inhibitors of COUP-TFII (NR2F2).; type: functional;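 further: HEK293 cells transiently cotransfected with COUP-TFII expression vector and reporter; luciferase reporter luminescence driven by COUP-TFII from the pX2-168 reporter plasmid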
[10] = inhibitors of PGC1a acetylation in cells, dose response, cell-based, cherry-picked samples (AID 720514); type: functional;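 further: potency may reflect raised or lowered acetylation signal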
cells = type: functional, cell-based
[11] = inhibitors of SNCA 5'UTR-driven reporter translation, confirmation, H4 neuroglioma cells, luminescence (AID 1988); type: functional, cell-based
[12] = HepG2 cell cytotoxicity, dose response, cytotoxicity control, plate reader, cherry-pick, antagonist series (AID 743416); type: functional, cell-based
[13] = MC4R antagonists, dose response, counter-screen for LGR2 antagonist project, cell-based, plate reader, cherry pick (AID 743444); type: functional;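 further: transfected HEK 293 cells stimulated with alpha-MSH peptide; potency of inhibitors of the alpha-MSH evoked signal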
[14] = biological target: T3, Luciferin 4-monooxygenase (Photinus pyralis, UniProt P08659); assay: firefly luciferase enzyme inhibitors, dose response, biochemical, luminescence (AID 1891)
[15] = Luminescence Cell-Based Dose Confirmation HTS to Identify Inhibitors of Platelet Dense Granule Release. [Related pubchem assays: 1663 (Primary HTS), 1678 (Summary of Project)]; type: functional
[16] = inhibitors of firefly luciferase expression or activity, dose response, H4 neuroglioma cells, luminescence (AID 1990); type: functional, cell-based
[17] = HEK293 cell cytotoxicity, dose response, cytotoxicity control, plate reader, cherry-picked samples (AID 743446); type: functional, cell-based
[18] = biological target: T4, Heat shock factor protein 1 (Mus musculus, UniProt P38532); assay: inhibition of MG132-induced HSE-luciferase signal, confirmation, cell-based, NIH3T3, luminescence, dose retest (AID 2382); type: functional;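 further: NIH3T3 fibroblasts with HSF1-driven luciferase reporter stressed by proteasome inhibitor MG132; luminescence from HSF1-driven luciferase expression after 8 hours of MG132 stress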
T4 sequence (P38532 whole entry): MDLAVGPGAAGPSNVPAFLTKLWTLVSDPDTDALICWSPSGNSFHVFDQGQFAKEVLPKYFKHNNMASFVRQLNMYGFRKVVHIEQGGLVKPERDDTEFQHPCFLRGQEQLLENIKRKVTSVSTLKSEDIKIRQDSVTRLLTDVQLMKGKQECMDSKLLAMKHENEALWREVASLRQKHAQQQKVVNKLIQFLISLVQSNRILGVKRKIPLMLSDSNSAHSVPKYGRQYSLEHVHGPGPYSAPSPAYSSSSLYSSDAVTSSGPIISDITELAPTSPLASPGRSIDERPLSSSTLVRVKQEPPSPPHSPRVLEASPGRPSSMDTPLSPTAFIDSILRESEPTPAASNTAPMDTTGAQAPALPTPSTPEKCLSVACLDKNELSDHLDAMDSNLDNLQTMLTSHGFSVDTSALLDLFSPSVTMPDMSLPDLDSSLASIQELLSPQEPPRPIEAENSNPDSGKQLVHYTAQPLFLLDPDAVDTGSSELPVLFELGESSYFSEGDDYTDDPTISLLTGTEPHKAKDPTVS

[19] = A549 cell cytotoxicity, dose response, cytotoxicity control, plate reader, cherry-pick, antagonist series (AID 743412); type: functional, cell-based
[20] = luciferase reporter signal reduction – luminescence, H4-C neuroglioblastoma cells, dose response (AID 2458); type: functional, cell-based;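 further: H4 neuroglioblastoma cells stably carrying a luciferase reporter gene fusion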
[21] = inhibitors of SNCA 5'UTR-driven translation, confirmation, luminescence, H4 neuroglioblastoma cells, dose confirmation (AID 2454); type: functional, cell-based;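 further: H4 neuroglioblastoma cells carrying an alpha-synuclein 5'UTR luciferase reporter; potency for inhibition of the luciferase signal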
[22] = LGR2 antagonists, dose response, cell-based, HEK293, CRE-luciferase reporter, cherry pick, set 2 (AID 743343); type: functional;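 further: transfected cells were stimulated with diluted bursicon conditioned medium after compound addition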
[23] = Luminescence-based counterscreen assay for KLF5 inhibitors: dose response cell-based high throughput screening assay to identify cytotoxic compounds using the IEC-6 intestinal epithelial cell line. [Related pubchem assays: 1700 (Primary screen.), 1834 (Confirmation screen.), 1858 (Summary AID.), 1905 (Counterscreen.)]; type: functional
[24] = Luminescence Cell-Based Dose Response HTS to Identify Inhibitors of 5'UTR Stem-Loop Driven Prion Protein mRNA Translation in H4 Neuroglioblastoma Cells. [Related pubchem assays: 1827 (Project Summary), 1813 (Primary HTS)]; type: functional
Paired box protein Pax-8 = Paired box protein Pax-8 (Homo sapiens, UniProt Q06710); assay: inhibitors of PAX8-driven TPO luciferase reporter, dose response, RMG-I cells, cherry-pick (AID 687027); type: functional, cell-based;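 further: luciferase reporter driven by Pax8 target thyroperoxidase promoter measured by SteadyGlo luminescence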
[25] = HEK293T cytotoxicity, dose response, cytotoxicity control for miR-122 modulator project, cell-based, inhibitor set, cherry-pick, set 2 (AID 720697); type: functional
Troponin, cardiac muscle = Troponin, cardiac muscle (Homo sapiens, UniProt P19429+P45379+P63316); assay: Fluorescence-based biochemical high throughput dose response assay for activators of the calcium sensitivity of cardiac Regulated Thin Filaments (RTF). [Related pubchem assays (depositor defined):AID493008, AID493018, AID504382, AID504383]; type: protein-complex assay
[26] = HEK293T cytotoxicity, dose response, cytotoxicity control for miR-122 modulator project, cell-based, activator set, cherry-pick (AID 720690); type: functional;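 further: HEK293T human cells scored for general mammalian cytotoxicity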
[27] = miR-122 activators in hepatoma reporter cells, dose response, cell-based, Huh7 psiCHECK-miR122, Renilla luciferase, cherry-picked (AID 651956); type: functional;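 further: huh7 hepatoma cells stably carrying a psiCHECK-2 miR-122 sensor plasmid; renilla luciferase signal reporting endogenous miR-122 activity after 48 h compound exposure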
Vero = assay: cells; type: functional; settings: Chlorocebus sabaeus
[28] = non-specific cell cytotoxicity, dose response, cytotoxicity control for PAX8 inhibitor project, plate reader, dry powder samples (AID 743021); type: functional, cell-based
HT-1080 = assay: cytotoxicity in HT1080 fibrosarcoma cells, cell-based, fluorescence readout (AID 620); type: functional; settings: Homo sapiens
[29] = Luminescence Cell-Based Dose Retest to Confirm Inhibitors of Cancer Stem Cells. [Related pubchem assays (depositor defined):AID2717, AID2721]; type: functional; settings: Homo sapiens
HEK293 [30] = assay: cells; type: functional, cell-based; settings: Homo sapiens
[31] = biological target: T3, Luciferin 4-monooxygenase; assay: Counter Screen for Luciferase-based Assay Positives. [Related pubchem assays: 620, 618, 411 ]
HEK293 [32] = assay: NOD1 signaling inhibitors, primary screen, cell-based, luminescence, uHTS (AID 1578); type: functional; settings: Homo sapiens
HEK293 [33] = assay: cells; type: functional, cell-based; settings: Homo sapiens; remark: listed apart in the source
[34] = biological target: Nucleotide-binding oligomerization domain-containing protein 2 (Homo sapiens, UniProt Q9HC29); assay: NOD2 signaling inhibitors, cell-based, luminescence, uHTS, HEK293 (AID 1566); type: functional
HEK293 [35] = assay: cells; type: functional, cell-based; settings: Homo sapiens; remark: listed apart in the source
HEK293 [36] = assay: NOD2 signaling inhibitors in MDP-stimulated cells, cell-based, uHTS, luminescence (AID 2001); type: functional; settings: Homo sapiens

COc1ccc2c3c([nH]c2c1)[C@H](CO)N(C(C)=O)CC31CN(Cc2ccccc2Cl)C1
AC50 [1]: 3 µM (active)

Oc1ccc(C[C@H]2CNC(=S)N2CC2CCCN2C[C@H](Cc2ccccc2)N2C[C@H](Cc3ccc(O)cc3)N(CC3CCCCC3)C2=S)cc1 (stereo partly specified)
IC50 [2]: > 69.5 µM (inactive) | IC50 [3]: 7.86 µM (active)

Cc1ccc(S(=O)(=O)N2CC[C@H]3[C@H](CO)Nc4ccc(-c5cccc(C(=O)N(C)C)c5)cc4[C@H]32)cc1
AC50 [1]: 3.07 µM (active)

COn1cnnc1-c1ccccc1
IC50 [4]: > 100 µM (not active)

CC1=Nc2nc3c(c4c(C#N)c(N5CCCCC5)nc(c24)N1)CC(=O)N3c1ccc(C(C)C)cc1.CN(C)C=O
IC50 (SUMO-activating enzyme): 11.7 µM (active) | IC50 (Protein Tat): > 100 µM (active) | IC50 [5]: > 50 µM (not active) | IC50 [6]: > 50 µM (not active) | Absolute IC50 (CHOP) [7]: 10 µM

CCCCC[C@@H](C)N1C[C@H](COCc2ccccc2)Oc2cc(N3CCC[C@@H]3CO)ccc2S1(=O)=O
AC50 [8]: > 30 µM (inactive)

COc1ccc(C(=O)C2CCN(c3ncnc4sccc34)CC2)cc1
IC50 [9]: 1.77 µM (active)

CC(=O)c1ccc(Nc2cc(C)nc3ccc(C)cc23)cc1
AC50 [10]: 6.09 µM (active)

CCCS(=O)(=O)c1cnc(C2COc3ccccc3O2)nc1N (stereo unspecified)
EC50 (cells): > 12 µM (inconclusive) | EC50 [11]: < 0.1 µM (active) | AC50 [12]: 40.1 µM (active) | AC50 [13]: 1.2 µM (active) | EC50 [14]: 14.4 µM (active) | EC50 [15]: 3.05 µM (active) | EC50 [16]: 0.197 µM (active) | AC50 [17]: 26.6 µM (active) | EC50 [18]: < 0.16 µM (active) | AC50 [19]: 34.2 µM (active) | EC50 [20]: 0.862 µM (active) | EC50 [21]: 1.06 µM (active) | AC50 [22]: 1.45 µM (active) | IC50 [23]: > 39.8 µM (not active) | EC50 [24]: 0.132 µM (active)

Cn1ncc2c(ON=C(N)c3ccc(C(F)(F)F)cc3)ncnc21
AC50 (Paired box protein Pax-8): 6.71 µM (active) | AC50 [10]: 4.71 µM (active) | AC50 [25]: 9.49 µM (active) | EC50 (Troponin, cardiac muscle): > 71.5 µM (inactive) | AC50 [26]: 14 µM (active) | AC50 [27]: 20.8 µM (active) | CC50 (Vero): 8.98 µM (active) | AC50 [28]: 66.7 µM (active)

CC(=O)Nc1ccc(SCC(=O)c2cc(C)n(Cc3cccs3)c2C)cc1
EC50 (HT-1080): > 50 µM (not active) | AC50 [29]: 1.77 µM (active) | IC50 (HEK293 [30]): > 20 µM (inactive) | EC50 [31]: 3.59 µM (active) | EC50 (HEK293 [32]): > 20 µM (inactive) | IC50 (HEK293 [33]): > 20 µM (inactive) | EC50 [34]: > 20 µM (inactive) | IC50 [9]: 23.6 µM (inactive) | IC50 (HEK293 [35]): > 20 µM (inactive) | IC50 (HEK293 [36]): > 20 µM (inactive)
